# Where two headings read alike, the source gives them in different places.
# Tests used:
# ddy male mouse = experiment: simple acute toxicity test, intravenous injection to mouse; format: in vivo; details: 3 mice; for Final death rate: observed 7 days
# Description: (§1) Simple acute toxicity test of the agent to be tested due to intravenous injection to mouse was effected as shown below.
# (§2) • (1) Agents to be tested Lithium salt, potassium salt, barium salt and magnesium salt of N-acetylneuraminic acid (all available from MECT Corporation) were used. • (2) Animal for experiment ddy male mouse Weight at initial of the test : 17.7 to 21.1 g Animal number per one level : 3 • (3) Room temperature : 23 ± 1 °C, Humidity : 55 ± 7 % • (4) Administration route : intravenous • (5) Administration method and amount thereof The above agent to be tested was dissolved with a physiological saline solution, and that which is prepared so as to become the administration amount of 0.2 ml per 20 g of mouse weight was injected into a tail vein. An administered amount was made to three levels of 500, 1000 and 2000 mg/kg. • (6) Observation of general condition and death condition Observations of the general condition and presence or absence of death were conducted from immediately after administration to after 7 days.
# [1] = as above; format: in vivo, ddy male mouse; details: mouse, in vivo, observed 7 days, 3 mice, read-out: Final death rate (converted)
# Description: as §1, §2
# passive Arthus reaction = passive Arthus reaction (bleeding of skin); format: in vivo, Male Hartley guinea pig
# Description: Male Hartley guinea pig weighing 300 to 400 g was used.
# According to the conventional method, Anti-OA (rabbit) was prepared. That is, by using New Zealand strain rabbits having a weight of 2.0 to 2.2 kg, 1 ml of an emulsion comprising 20 mg of OA and Freund complete adjuvant (available from DIFCO LABORATORIES) was subcutaneously injected to back side portion and active sensitization was effected for total 4 times for every two weeks.
# After two weeks from the final sensitizing date, blood was gathered from common carotid artery and after separation of antiserum, it was stored under freezing at -20°C by the usage for experiment.
# The passive Arthus reaction was effected according to the method of Katayama et al. [S. Katayama, et al., Arzneim.-Forsh., vol. 31, p. […] However, in order to cause sufficient reaction, change were added to a cocentration of OA solution. That is, sensitization was effected by intravenously injecting 1 ml of antiserum stock solution and 30 minutes after, the reaction was caused by intradermally injecting respective 0.05 ml of OA solutions, each containing 0.025 mg and 0.05 mg of OA respectively, to each one portion of an abdominal part and total two portions of guinea pig at which hair was cut at the day before. At this time, a physiological saline solution was intradermal injected simultaneously in the same manner as a blank. […] And, the value was calibrated by the blank to be made as the experimental results.
# 1, 5 or 20 mg/kg of sodium N-acetylneuraminate, or physiological saline solution (1 mg/kg) as a control was intravenously injected before 30 minutes of antigen-challenge or immediately after sensitization.
# Also, Student's t-test was employed for significant test and p < 0.05 was made as statistically significant.
# SD rat = experiment: acute toxicity test, rat; format: in vivo
# Excerpt: (§3) Acute toxicity tests of sodium N-acetylneuraminate against mouse, rat and guinea pig due to oral, subcutaneous injection, intraperitoneal injection, intravenous injection and inhalation were effected as shown below. • (1) Animals to be tested ICR mouse 6 weeks old SD rat 6 weeks old Hartley guinea pig 6 weeks old • (2) Chemicals concentration 20 % (w/v) dissolved in distilled water • (3) Animal number per one level Ten • (4) Terms observed 14 days • (5) Calculation method of LD₅₀ Probit method
# (§4) Inhalation is effected by exposing powder to be tested for one hour.
# acute toxicity test, rat = format: in vivo; details: in vivo, male, 14 days observed, read-out: LD₅₀
# Excerpt: as §3, §4
# [2] = acute toxicity test, guinea pig; details: in vivo, iv, 14 days observed, read-out: LD₅₀
# Excerpt: as §3
# ICR mouse = experiment: acute toxicity test, mouse; format: in vivo; details: female, 14 days observed
# Excerpt: as §3
# [3] = acute toxicity test, mouse; format: in vivo; details: in vivo, male, 14 days observed, read-out: LD₅₀
# Excerpt: as §3
structure (smiles),measurement,setting,value
CC(=O)N[C@H]1[C@H]([C@H](O)[C@H](O)CO)OC(O)(C(=O)[O-])C[C@@H]1O.[K+] (stereo partly shown) [Potassium N-acetylneuraminate],Died number with a lapse of time,"ddy male mouse; 500 mg/kg intravenous, 1 hrs",0
same,Died number with a lapse of time,"ddy male mouse; 500 mg/kg intravenous, 3 hrs",0
same,Died number with a lapse of time,"ddy male mouse; 500 mg/kg intravenous, 6 hrs",0
same,Died number with a lapse of time,"ddy male mouse; 500 mg/kg intravenous, 24 hrs",0
same,Died number with a lapse of time,"ddy male mouse; 500 mg/kg intravenous, 2 days",0
same,Died number with a lapse of time,"ddy male mouse; 500 mg/kg intravenous, 3 days",0
same,Died number with a lapse of time,"ddy male mouse; 500 mg/kg intravenous, 4 days",0
same,Died number with a lapse of time,"ddy male mouse; 500 mg/kg intravenous, 5 days",0
same,Died number with a lapse of time,"ddy male mouse; 500 mg/kg intravenous, 6 days",0
same,Died number with a lapse of time,"ddy male mouse; 500 mg/kg intravenous, 7 days",0
same,Final death rate,ddy male mouse; 500 mg/kg intravenous,0/3
same,Died number with a lapse of time,"ddy male mouse; 1000 mg/kg intravenous, 1 hrs",3
same,Died number with a lapse of time,"ddy male mouse; 1000 mg/kg intravenous, 3 hrs",0
same,Died number with a lapse of time,"ddy male mouse; 1000 mg/kg intravenous, 6 hrs",0
same,Died number with a lapse of time,"ddy male mouse; 1000 mg/kg intravenous, 24 hrs",0
same,Died number with a lapse of time,"ddy male mouse; 1000 mg/kg intravenous, 2 days",0
same,Died number with a lapse of time,"ddy male mouse; 1000 mg/kg intravenous, 3 days",0
same,Died number with a lapse of time,"ddy male mouse; 1000 mg/kg intravenous, 4 days",0
same,Died number with a lapse of time,"ddy male mouse; 1000 mg/kg intravenous, 5 days",0
same,Died number with a lapse of time,"ddy male mouse; 1000 mg/kg intravenous, 6 days",0
same,Died number with a lapse of time,"ddy male mouse; 1000 mg/kg intravenous, 7 days",0
same,Final death rate,ddy male mouse; 1000 mg/kg intravenous,3/3
same,Died number with a lapse of time,"ddy male mouse; 2000 mg/kg intravenous, 1 hrs",3
same,Died number with a lapse of time,"ddy male mouse; 2000 mg/kg intravenous, 3 hrs",0
same,Died number with a lapse of time,"ddy male mouse; 2000 mg/kg intravenous, 6 hrs",0
same,Died number with a lapse of time,"ddy male mouse; 2000 mg/kg intravenous, 24 hrs",0
same,Died number with a lapse of time,"ddy male mouse; 2000 mg/kg intravenous, 2 days",0
same,Died number with a lapse of time,"ddy male mouse; 2000 mg/kg intravenous, 3 days",0
same,Died number with a lapse of time,"ddy male mouse; 2000 mg/kg intravenous, 4 days",0
same,Died number with a lapse of time,"ddy male mouse; 2000 mg/kg intravenous, 5 days",0
same,Died number with a lapse of time,"ddy male mouse; 2000 mg/kg intravenous, 6 days",0
same,Died number with a lapse of time,"ddy male mouse; 2000 mg/kg intravenous, 7 days",0
same,Final death rate,ddy male mouse; 2000 mg/kg intravenous,3/3
same,mortality at 168 h,[1]; 1000 mg/kg intravenous,100%
same,mortality at 168 h,[1]; 2000 mg/kg intravenous,100%
CC(=O)N[C@H]1[C@H]([C@H](O)[C@H](O)CO)OC(O)(C(=O)O)C[C@@H]1O (stereo partly shown) [N-acetylneuraminic acid],inhibiting effect to Arthus reaction,"passive Arthus reaction; general statement, in vivo",has inhibiting effect to Arthus reaction
CC(=O)N[C@H]1[C@H]([C@H](O)[C@H](O)CO)OC(O)(C(=O)[O-])C[C@@H]1O.[Na+] (stereo partly shown),LD₅₀,"SD rat; female, i.p., 14 days observed",">5,000 mg/kg"
same,LD₅₀,"SD rat; female, i.v., 14 days observed",">5,000 mg/kg"
same,LD₅₀,"SD rat; female, inhalation, powder exposure for one hour",">4,000 mg/m³"
same,LD₅₀,"SD rat; female, p.o., 14 days observed",">5,000 mg/kg"
same,LD₅₀,"SD rat; female, s.c., 14 days observed",">5,000 mg/kg"
same,LD₅₀,"SD rat; male, inhalation, powder exposure for one hour",">4,000 mg/m³"
same,LD50 at 336 h,"acute toxicity test, rat; ip, i.p.",> 5000 mg/kg
same,LD50 at 336 h,"acute toxicity test, rat; iv, i.v.",> 5000 mg/kg
same,LD50 at 336 h,"acute toxicity test, rat; po, p.o.",> 5000 mg/kg
same,LD50 at 336 h,"acute toxicity test, rat; sc, s.c.",> 5000 mg/kg
same,LD50 at 336 h,[2],> 5000 mg/kg
same,LD₅₀,ICR mouse; i.p.,">5,000 mg/kg"
same,LD₅₀,ICR mouse; i.v.,">5,000 mg/kg"
same,LD₅₀,ICR mouse; p.o.,">5,000 mg/kg"
same,LD₅₀,ICR mouse; s.c.,">5,000 mg/kg"
same,LD50 at 336 h,"[3]; ip, i.p.",> 5000 mg/kg
same,LD50 at 336 h,"[3]; iv, i.v.",> 5000 mg/kg
same,LD50 at 336 h,"[3]; po, p.o.",> 5000 mg/kg
same,LD50 at 336 h,"[3]; sc, s.c.",> 5000 mg/kg
same,bleeding of skin,"passive Arthus reaction; 20 mg/kg intravenously, guinea pig",remarkable
same,bleeding of skin,"passive Arthus reaction; 1, 5 or 20 mg/kg intravenously, 30 minutes before antigen challenge, guinea pig, Fig. 1 and Fig. 2",depressed depending on an amount to be used
same,inhibiting effect on bleeding of skin,"passive Arthus reaction; 24 hours after antigen challenge, guinea pig",continued even after 24 hours from antigen challenge
CC(=O)N[C@H]1[C@H]([C@H](O)[C@H](O)CO)OC(O)(C(=O)[O-])C[C@@H]1O.[Li+] (stereo partly shown) [Lithium N-acetylneuraminate],Died number with a lapse of time,"ddy male mouse; 500 mg/kg intravenous, 1 hrs",0
same,Died number with a lapse of time,"ddy male mouse; 500 mg/kg intravenous, 3 hrs",0
same,Died number with a lapse of time,"ddy male mouse; 500 mg/kg intravenous, 6 hrs",0
same,Died number with a lapse of time,"ddy male mouse; 500 mg/kg intravenous, 24 hrs",0
same,Died number with a lapse of time,"ddy male mouse; 500 mg/kg intravenous, 2 days",0
same,Died number with a lapse of time,"ddy male mouse; 500 mg/kg intravenous, 3 days",0
same,Died number with a lapse of time,"ddy male mouse; 500 mg/kg intravenous, 4 days",0
same,Died number with a lapse of time,"ddy male mouse; 500 mg/kg intravenous, 5 days",0
same,Died number with a lapse of time,"ddy male mouse; 500 mg/kg intravenous, 6 days",0
same,Died number with a lapse of time,"ddy male mouse; 500 mg/kg intravenous, 7 days",0
same,Final death rate,ddy male mouse; 500 mg/kg intravenous,0/3
same,Died number with a lapse of time,"ddy male mouse; 1000 mg/kg intravenous, 1 hrs",0
same,Died number with a lapse of time,"ddy male mouse; 1000 mg/kg intravenous, 3 hrs",0
same,Died number with a lapse of time,"ddy male mouse; 1000 mg/kg intravenous, 6 hrs",0
same,Died number with a lapse of time,"ddy male mouse; 1000 mg/kg intravenous, 24 hrs",0
same,Died number with a lapse of time,"ddy male mouse; 1000 mg/kg intravenous, 2 days",0
same,Died number with a lapse of time,"ddy male mouse; 1000 mg/kg intravenous, 3 days",0
same,Died number with a lapse of time,"ddy male mouse; 1000 mg/kg intravenous, 4 days",0
same,Died number with a lapse of time,"ddy male mouse; 1000 mg/kg intravenous, 5 days",0
same,Died number with a lapse of time,"ddy male mouse; 1000 mg/kg intravenous, 6 days",0
same,Died number with a lapse of time,"ddy male mouse; 1000 mg/kg intravenous, 7 days",0
same,Final death rate,ddy male mouse; 1000 mg/kg intravenous,0/3
same,Died number with a lapse of time,"ddy male mouse; 2000 mg/kg intravenous, 1 hrs",0
same,Died number with a lapse of time,"ddy male mouse; 2000 mg/kg intravenous, 3 hrs",0
same,Died number with a lapse of time,"ddy male mouse; 2000 mg/kg intravenous, 6 hrs",0
same,Died number with a lapse of time,"ddy male mouse; 2000 mg/kg intravenous, 24 hrs",0
same,Died number with a lapse of time,"ddy male mouse; 2000 mg/kg intravenous, 2 days",0
same,Died number with a lapse of time,"ddy male mouse; 2000 mg/kg intravenous, 3 days",0
same,Died number with a lapse of time,"ddy male mouse; 2000 mg/kg intravenous, 4 days",0
same,Died number with a lapse of time,"ddy male mouse; 2000 mg/kg intravenous, 5 days",0
same,Died number with a lapse of time,"ddy male mouse; 2000 mg/kg intravenous, 6 days",0
same,Died number with a lapse of time,"ddy male mouse; 2000 mg/kg intravenous, 7 days",0
same,Final death rate,ddy male mouse; 2000 mg/kg intravenous,0/3
CC(=O)NC1C(O)CC(O)(C(=O)O)OC1C(O)C(O)CO (stereo not shown) [Barium N-acetylneuraminate],mortality at 168 h,[1]; 500 mg/kg intravenous,100%
CC(=O)NC1C(O)CC(O)(C(=O)O)OC1C(O)C(O)CO (stereo not shown) [Magnesium N-acetylneuraminate],mortality at 168 h,[1]; 1000 mg/kg intravenous,100%
same,mortality at 168 h,[1]; 2000 mg/kg intravenous,100%

# Source: patent publication EP0386657A1, “Preparation for treating systemic lupus erythematosus” (MECT CORPORATION, priority 1989, dated 1990)
